The record followed here is patent US9096596B2 (Janssen Pharmaceutica NV, priority 2013, dated 2015).

A value given as a limit tells only on which side of the number the result lay.

rat P2X7, sequence (Q64663 whole entry): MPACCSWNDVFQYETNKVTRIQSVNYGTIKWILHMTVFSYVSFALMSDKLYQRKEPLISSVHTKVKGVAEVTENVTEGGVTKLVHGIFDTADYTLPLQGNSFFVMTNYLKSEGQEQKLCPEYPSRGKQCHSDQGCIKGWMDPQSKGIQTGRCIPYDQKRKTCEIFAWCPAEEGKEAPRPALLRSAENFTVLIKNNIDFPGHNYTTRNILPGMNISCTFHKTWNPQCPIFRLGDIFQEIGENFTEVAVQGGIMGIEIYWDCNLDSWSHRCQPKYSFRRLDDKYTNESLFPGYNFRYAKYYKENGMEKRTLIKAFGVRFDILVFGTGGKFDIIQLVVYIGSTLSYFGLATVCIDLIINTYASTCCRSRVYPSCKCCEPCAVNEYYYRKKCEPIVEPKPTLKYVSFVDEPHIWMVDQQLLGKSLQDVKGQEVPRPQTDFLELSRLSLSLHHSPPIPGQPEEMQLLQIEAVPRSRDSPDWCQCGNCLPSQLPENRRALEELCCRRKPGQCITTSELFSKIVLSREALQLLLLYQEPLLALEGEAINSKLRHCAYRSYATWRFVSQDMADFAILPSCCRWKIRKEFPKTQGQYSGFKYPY

In one assay the target is P2X7 (Homo sapiens (Human), UniProt Q99572). The experiment in a line: P2X7 antagonism in human PBMCs (IL-1β release, ELISA). It is filed as cell-based. As to conditions: test compound 10 μM, IL-1β release in human PBMCs, LPS 30 ng/ml + Bz-ATP 0.5 mM, read-out: PBMC 10 μM (% control). As for the experimental part: Human blood was collected using a blood donor program. […] Cells were incubated for an additional 1.5 hours. […] In Table 2, when the data cell has been left blank, it is intended to mean that the compound was not tested in that assay.
P2X7, sequence (Q99572 whole entry): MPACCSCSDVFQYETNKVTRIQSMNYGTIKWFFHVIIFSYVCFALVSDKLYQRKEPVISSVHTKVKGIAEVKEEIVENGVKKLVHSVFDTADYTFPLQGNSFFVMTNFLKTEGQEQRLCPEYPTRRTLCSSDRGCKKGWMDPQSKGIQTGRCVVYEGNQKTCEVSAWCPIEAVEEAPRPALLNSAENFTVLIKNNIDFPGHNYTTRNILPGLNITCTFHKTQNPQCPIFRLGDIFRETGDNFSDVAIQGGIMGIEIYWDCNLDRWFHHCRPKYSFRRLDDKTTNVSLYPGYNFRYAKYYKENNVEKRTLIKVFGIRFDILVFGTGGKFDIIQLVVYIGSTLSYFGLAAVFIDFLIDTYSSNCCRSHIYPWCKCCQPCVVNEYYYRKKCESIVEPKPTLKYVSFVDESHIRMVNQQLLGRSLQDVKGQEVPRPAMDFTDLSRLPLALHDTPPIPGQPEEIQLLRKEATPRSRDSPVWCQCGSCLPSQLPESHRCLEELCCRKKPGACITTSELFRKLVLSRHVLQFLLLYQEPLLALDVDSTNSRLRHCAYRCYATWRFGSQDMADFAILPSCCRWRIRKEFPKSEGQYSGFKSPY
In general terms: In an ELISA, binding on a coated surface is turned into a signal by an enzyme label.
With `CC1c2ncnc(-c3ccn[nH]3)c2CCN1C(=O)c1ccc(F)c(C(F)(F)F)c1Cl` (stereo not drawn) [Example 115, (2-chloro-4-fluoro-3-(trifluoromethyl)phenyl)(8-methyl-4-(1H-pyrazol-5-yl)-5,6-dihydropyrido[3,4-d]pyrimidin-7(8H)-yl)methanone], the remaining activity at 10 µM is -3.1%.
The same measure, in the same setting: the value for `Cc1cccc(C(=O)N2CCc3c(ncnc3-c3ccn[nH]3)C2)c1C` [Example 9, 7-[(2,3-Dimethylphenyl)carbonyl]-4-(1H-pyrazol-5-yl)-5,6,7,8-tetrahydropyrido[3,4-d]pyrimidine] was 9.8%.
Still for that read-out and setting: as for `Cc1nc2c(c(-c3ccn[nH]3)n1)CC(C)N(C(=O)c1ccc(Cl)c(F)c1Cl)C2` (stereo not drawn) [Example 70, (2,4-dichloro-3-fluorophenyl)(2,6-dimethyl-4-(1H-pyrazol-5-yl)-5,6-dihydropyrido[3,4-d]pyrimidin-7(8H)-yl)methanone], the figure is -2.7%; as for `CC1c2ncnc(-c3ccn[nH]3)c2CCN1C(=O)c1ccc(Cl)c(F)c1Cl` (stereo not drawn) [Example 121], 0.7%; as for `Cc1nc2c(c(-c3ccc[nH]3)n1)CCN(C(=O)c1cccc(C(F)(F)F)c1Cl)C2` [Example 45, 7-{[2-Chloro-3-(trifluoromethyl)phenyl]carbonyl}-2-methyl-4-(1H-pyrrol-2-yl)-5,6,7,8-tetrahydropyrido[3,4-d]pyrimidine], 7.1%.
The same measure, in the same setting: as for `CC(C)c1nc2c(c(-c3ccn[nH]3)n1)CC(C)N(C(=O)c1cccc(C(F)(F)F)c1Cl)C2` (stereo not drawn) [Example 101, (2-chloro-3-(trifluoromethyl)phenyl)(2-isopropyl-6-methyl-4-(1H-pyrazol-5-yl)-5,6-dihydropyrido[3,4-d]pyrimidin-7(8H)-yl)methanone], the figure is 13.6%.
As for `Cc1noc(C)c1-c1ncnc2c1CCN(C(=O)c1cccc(C(F)(F)F)c1Cl)C2` [Example 50, 7-{[2-Chloro-3-(trifluoromethyl)phenyl]carbonyl}-4-(3,5-dimethylisoxazol-4-yl)-5,6,7,8-tetrahydropyrido[3,4-d]pyrimidine], the remaining activity at 10 µM is 83.5%.
Same read-out and setting: as for `Cc1cccc(C(=O)N2CCc3c(ncnc3-c3ccccn3)C2)c1Cl` [Example 13, 7-[(2-Chloro-3-methylphenyl)carbonyl]-4-pyridin-2-yl-5,6,7,8-tetrahydropyrido[3,4-d]pyrimidine], the figure is 13.4%; as for `Cc1nc2c(c(-c3[nH]ncc3C(F)(F)F)n1)CCN(C(=O)c1cccc(Cl)c1Cl)C2` [Example 40, 7-[(2,3-Dichlorophenyl)carbonyl]-2-methyl-4-[4-(trifluoromethyl)-1H-pyrazol-5-yl]-5,6,7,8-tetrahydropyrido[3,4-d]pyrimidine], 12.9%.
The same measure, in the same setting: the value for `Cc1nc2c(c(-c3ccn[nH]3)n1)CC(C)N(C(=O)c1cccc(C(F)(F)F)c1F)C2` (stereo not drawn) [Example 74, (2,6-dimethyl-4-(1H-pyrazol-5-yl)-5,6-dihydropyrido[3,4-d]pyrimidin-7(8H)-yl)(2-fluoro-3-(trifluoromethyl)phenyl)methanone] was 22.5%.
Still for that read-out and setting: the value for `Cc1nc2c(c(-c3ccccn3)n1)CCN(C(=O)c1cccc(C(F)(F)F)c1Cl)C2` [Example 30, 7-{[2-Chloro-3-(trifluoromethyl)phenyl]carbonyl}-2-methyl-4-pyridin-2-yl-5,6,7,8-tetrahydropyrido[3,4-d]pyrimidine] was 21%; that for `O=C(c1cccc(C(F)(F)F)c1Cl)N1CCc2c(ncnc2-c2ccnn2C2CCCCO2)C1` (stereo not drawn) [Example 17, 7-{[2-Chloro-3-(trifluoromethyl)phenyl]carbonyl}-4-[1-(tetrahydro-2H-pyran-2-yl)-1H-pyrazol-5-yl]-5,6,7,8-tetrahydropyrido[3,4-d]pyrimidine] was 9.9%.
For the compound `Cc1nc2c(c(-c3c(C)noc3C)n1)CCN(C(=O)c1cccc(C(F)(F)F)c1Cl)C2` [Example 46, 7-{[2-Chloro-3-(trifluoromethyl)phenyl]carbonyl}-4-(3,5-dimethylisoxazol-4-yl)-2-methyl-5,6,7,8-tetrahydropyrido[3,4-d]pyrimidine], the remaining activity at 10 µM came out at 100%.
With `Cc1nc2c(c(-c3ccccn3)n1)CCN(C(=O)c1cccc(Cl)c1Cl)C2` [Example 31, 7-[(2,3-Dichlorophenyl)carbonyl]-2-methyl-4-pyridin-2-yl-5,6,7,8-tetrahydropyrido[3,4-d]pyrimidine], the remaining activity at 10 µM was found to be 9.2%.
The same measure, in the same setting: the value for `Cc1nc2c(c(-c3ccn[nH]3)n1)CC(C)N(C(=O)c1ccc(F)c(C(F)(F)F)c1Cl)C2` (stereo not drawn) [Example 64, (2-chloro-4-fluoro-3-(trifluoromethyl)phenyl)(2,6-dimethyl-4-(1H-pyrazol-5-yl)-5,6-dihydropyrido[3,4-d]pyrimidin-7(8H)-yl)methanone] was -2.1%; that for `Cc1nc2c(c(-c3ccn[nH]3)n1)CC(C)N(C(=O)c1cccc(C(F)(F)F)c1Cl)C2` (stereo not drawn) [Example 56, 7-{[2-Chloro-3-(trifluoromethyl)phenyl]carbonyl}-2,6-dimethyl-4-(1H-pyrazol-5-yl)-5,6,7,8-tetrahydropyrido[3,4-d]pyrimidine] was 10.2%.
The same measure, in the same setting: the value for `Cc1nc2c(c(-c3ccn(CCF)n3)n1)C[C@H](C)N(C(=O)c1cccc(C(F)(F)F)c1Cl)C2` (single isomer, unassigned) [Example 125, (S*)-(2-chloro-3-(trifluoromethyl)phenyl)(4-(1-(2-fluoroethyl)-1H-pyrazol-3-yl)-2,6-dimethyl-5,6-dihydropyrido[3,4-d]pyrimidin-7(8H)-yl)methanone] was 64.7%.

The target in another assay is rat P2X7 (Rattus norvegicus (Rat), UniProt Q64663). The experiment in a line: Ca2+ flux (FLIPR) in 1321N1 cells expressing recombinant rat P2X7 channel. It is filed as cell-based. As to conditions: 250 μM BzATP, Calcium-4 dye. As to the method:
1321N1 cells expressing the recombinant human, rat or mouse P2X7 channel was cultured in HyQ DME/(HyClone/Dulbecco's Modified Eagle Medium) high glucose supplemented with 10% Fetal Bovine Serum (FBS) and appropriate selection marker. Cells were seeded at a density of 25000 cells/well (96-well clear bottom black walled plates) in 100 μl volume/well. On the day of the experiment, cell plates were washed with assay buffer, containing (in mM): 130 NaCl, 2 KCl, 1 CaCl2, 1 MgCl2, 10 HEPES, 5 glucose; pH 7.40 and 300 mOs. After the wash, cells were loaded with the Calcium-4 dye (Molecular Device) and incubated in the dark for 60 minutes. Test compounds were prepared at 250× the test concentration in neat DMSO. Intermediate 96-well compound plates were prepared by transferring 1.2 μL of the compound into 300 μL of assay buffer. A further 3× dilution occurred when transferring 50 μL/well of the compound plate to 100 μL/well in the cell plate. Cells were incubated with test compounds and dye for 30 minutes. […] The fluorescence change was measured 180 seconds after adding the agonist.
In general, IC50 refers to the concentration that gives 50% inhibition. As for `C[C@H]1c2ncnc(-c3ccn[nH]3)c2CCN1C(=O)c1ccc(F)c(Cl)c1Cl` (single isomer, unassigned) [Example 120, (S*)-(2,3-dichloro-4-fluorophenyl)(8-methyl-4-(1H-pyrazol-5-yl)-5,6-dihydropyrido[3,4-d]pyrimidin-7(8H)-yl)methanone], the IC50 turned out to be 1510 nM.
Same read-out and setting: as for `Cc1nc2c(c(-c3ccn[nH]3)n1)C[C@H](C)N(C(=O)c1ccc(F)cc1Cl)C2` (single isomer, unassigned) [Example 92, (S*)-(2-chloro-4-fluorophenyl)(2,6-dimethyl-4-(1H-pyrazol-5-yl)-5,6-dihydropyrido[3,4-d]pyrimidin-7(8H)-yl)methanone], the figure is 5960 nM.
On the same count and under the same terms, the value for `Cc1cccc(C(=O)N2CCc3c(ncnc3-c3ccn[nH]3)C2)c1Cl` [Example 8, 7-[(2-Chloro-3-methylphenyl)carbonyl]-4-(1H-pyrazol-5-yl)-5,6,7,8-tetrahydropyrido[3,4-d]pyrimidine] was more than 10000 nM; that for `Cc1nc2c(c(-c3ccn[nH]3)n1)C[C@H](C)N(C(=O)c1cccc(Cl)c1Cl)C2` (single isomer, unassigned) [Example 69, (S*)-(2,3-dichlorophenyl)(2,6-dimethyl-4-(1H-pyrazol-5-yl)-5,6-dihydropyrido[3,4-d]pyrimidin-7(8H)-yl)methanone] was 938 nM; that for `C[C@@H]1c2ncnc(-c3ccn[nH]3)c2CCN1C(=O)c1cccc(C(F)(F)F)c1Cl` (single isomer, unassigned) [Example 113, (R*)-(2-chloro-3-(trifluoromethyl)phenyl)(8-methyl-4-(1H-pyrazol-5-yl)-5,6-dihydropyrido[3,4-d]pyrimidin-7(8H)-yl)methanone] was 9.1 nM.
The same measure, in the same setting: the value for `Cc1nc2c(c(-c3ccn[nH]3)n1)C[C@@H](C)N(C(=O)c1cccc(Cl)c1Cl)C2` (single isomer, unassigned) [Example 68, (R*)-(2,3-dichlorophenyl)(2,6-dimethyl-4-(1H-pyrazol-5-yl)-5,6-dihydropyrido[3,4-d]pyrimidin-7(8H)-yl)methanone] was 8.8 nM; that for `C[C@@H]1c2ncnc(-c3ccn[nH]3)c2CCN1C(=O)c1ccc(F)c(Cl)c1Cl` (single isomer, unassigned) [Example 119, (R*)-(2,3-dichloro-4-fluorophenyl)(8-methyl-4-(1H-pyrazol-5-yl)-5,6-dihydropyrido[3,4-d]pyrimidin-7(8H)-yl)methanone] was 28.4 nM.
For `C[C@H]1c2ncnc(-c3ccn[nH]3)c2CCN1C(=O)c1cccc(C(F)(F)F)c1Cl` (single isomer, unassigned) [Example 114, (S*)-(2-chloro-3-(trifluoromethyl)phenyl)(8-methyl-4-(1H-pyrazol-5-yl)-5,6-dihydropyrido[3,4-d]pyrimidin-7(8H)-yl)methanone], the IC50 amounted to 166 nM.
The same measure, in the same setting: as for `Cc1nc2c(c(-c3ccn[nH]3)n1)C[C@@H](C)N(C(=O)c1ccc(F)cc1Cl)C2` (single isomer, unassigned) [Example 91, (R*)-(2-chloro-4-fluorophenyl)(2,6-dimethyl-4-(1H-pyrazol-5-yl)-5,6-dihydropyrido[3,4-d]pyrimidin-7(8H)-yl)methanone], the figure is 132 nM; as for `Cc1nc2c(c(-n3nccn3)n1)CCN(C(=O)c1cccc(C(F)(F)F)c1Cl)C2` [Example 47, 7-{[2-Chloro-3-(trifluoromethyl)phenyl]carbonyl}-2-methyl-4-(2H-1,2,3-triazol-2-yl)-5,6,7,8-tetrahydropyrido[3,4-d]pyrimidine], 7.9 nM.
